Results as given in patent US8501770B2 (ArQule, Inc., priority 2009, dated 2013).
pIC50: −log10 of the molar value.

Target: Full-length inactive AKT1 (Homo sapiens, UniProt P31749)
Test: Inactive Akt Alpha Screen Assay
Format: biochemical
Conditions: values not marked with "*"; read-out: Akt1 IC50, (AlphaScreen)
Experimental: AKT1 activity was assayed using the GSK3-derived biotinylated peptide substrate, crosstide (biotin-[…]), and AlphaScreen™ (Amplified Luminescent Proximity Homogeneous Assay) technology. AKT1 activation was achieved by the addition of the activating kinases PDK1 and MAPKAPK2, lipid vesicles, and ATP. The extent of peptide phosphorylation was determined using a phospho-AKT substrate antibody and acceptor beads conjugated to Protein A and donor beads conjugated to streptavidin that bind to the biotin on the peptide. Excitation of the donor beads converted ambient oxygen to excited singlet oxygen which, when in close proximity to acceptor beads, reacted with acceptor beads resulting in signal amplification.
Assay plates were incubated for 90 minutes at room temperature in the dark, and the plates were read on a Perkin Elmer Envision Multilabel plate reader (excitation wavelength: […], emission wavelength: 570 nm).

Sequence of Full-length inactive AKT1 (P31749 whole entry): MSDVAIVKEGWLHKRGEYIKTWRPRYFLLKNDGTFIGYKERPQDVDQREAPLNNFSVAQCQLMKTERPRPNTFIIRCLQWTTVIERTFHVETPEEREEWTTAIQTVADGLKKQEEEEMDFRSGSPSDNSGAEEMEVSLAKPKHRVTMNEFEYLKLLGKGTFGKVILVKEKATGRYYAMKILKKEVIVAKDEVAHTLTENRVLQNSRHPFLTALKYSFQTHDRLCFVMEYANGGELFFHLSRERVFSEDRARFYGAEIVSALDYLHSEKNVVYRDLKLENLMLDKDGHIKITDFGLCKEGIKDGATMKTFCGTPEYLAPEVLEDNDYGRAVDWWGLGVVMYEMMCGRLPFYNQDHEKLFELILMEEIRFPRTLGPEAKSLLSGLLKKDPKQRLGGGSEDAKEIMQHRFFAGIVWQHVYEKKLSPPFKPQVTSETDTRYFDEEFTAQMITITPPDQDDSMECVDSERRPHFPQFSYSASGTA

pIC50	Compound
6.22	COc1ccc(Nc2ccc3nc(-c4cccnc4N)n(-c4ccc(CNC(=O)c5ccccc5)cc4)c3n2)cc1 [Example 175]
5.92	COc1ccc(NC(=O)NCc2ccc(-n3c(-c4cccnc4N)nc4cc(F)cnc43)cc2)cc1 [Example 176, 1-{4-[2-(2-aminopyridin-3-yl)-6-fluoro-3H-imidazo[4,5-b]pyridin-3-yl]benzyl}-3-(4-methoxyphenyl)urea]
5.68	COc1ccc(S(=O)(=O)NCc2ccc(-n3c(-c4cccnc4N)nc4cc(Br)cnc43)cc2)cc1 [Example 177, N-{4-[2-(2-aminopyridin-3-yl)-6-bromo-3H-imidazo[4,5-b]pyridin-3-yl]benzyl}-4-methoxybenzenesulfonamide]
6.28	Cc1ccnc(NC(=O)c2ccc(-n3c(-c4cccnc4N)nc4cccnc43)cc2)c1 [Example 179, 4-[2-(2-aminopyridin-3-yl)-3H-imidazo[4,5-b]pyridin-3-yl]-N-(4-methylpyridin-2-yl)benzamide]
6.23	Cc1ccc2cc(NC(=O)c3ccc(-n4c(-c5cccnc5N)nc5cccnc54)cc3)ccc2n1 [Example 180, 4-[2-(2-aminopyridin-3-yl)-3H-imidazo[4,5-b]pyridin-3-yl]-N-(2-methylquinolin-6-yl)benzamide]
6.08	CC(=O)Nc1ccc(NC(=O)c2ccc(-n3c(-c4cccnc4N)nc4cccnc43)cc2)cc1 [Example 181, N-[4-(acetylamino)phenyl]-4-[2-(2-aminopyridin-3-yl)-3H-imidazo[4,5-b]pyridin-3-yl]benzamide]
5.96	Nc1ncccc1-c1nc2cccnc2n1-c1ccc(C(=O)Nc2ccc3c(c2)C(=O)OC3)cc1 [Example 182, 4-[2-(2-aminopyridin-3-yl)-3H-imidazo[4,5-b]pyridin-3-yl]-N-(3-oxo-1,3-dihydro-2-benzofuran-5-yl)benzamide]
5.82	N#Cc1cccc(NC(=O)c2ccc(-n3c(-c4cccnc4N)nc4cccnc43)cc2)c1 [Example 183, 4-[2-(2-aminopyridin-3-yl)-3H-imidazo[4,5-b]pyridin-3-yl]-N-(3-cyanophenyl)benzamide]
5.72	COc1cccc(NC(=O)c2ccc(-n3c(-c4cccnc4N)nc4cccnc43)cc2)c1 [Example 184, 4-[2-(2-aminopyridin-3-yl)-3H-imidazo[4,5-b]pyridin-3-yl]-N-(3-methoxyphenyl)benzamide]
5.60	COc1ccc(NC(=O)c2ccc(-n3c(-c4cccnc4N)nc4cccnc43)cc2)cc1F [Example 185, 4-[2-(2-aminopyridin-3-yl)-3H-imidazo[4,5-b]pyridin-3-yl]-N-(3-fluoro-4-methoxyphenyl)benzamide]
5.60	Cc1ccc(NC(=O)c2ccc(-n3c(-c4cccnc4N)nc4cccnc43)cc2)cc1 [Example 186, 4-[2-(2-aminopyridin-3-yl)-3H-imidazo[4,5-b]pyridin-3-yl]-N-(4-methylphenyl)benzamide]
5.68	Nc1ncccc1-c1nc2cc(C(F)(F)F)cnc2n1-c1ccc(CNC(=O)c2ccc(Br)cc2)cc1 [Example 187, N-{4-[2-(2-aminopyridin-3-yl)-6-(trifluoromethyl)-3H-imidazo[4,5-b]pyridin-3-yl]benzyl}-4-bromobenzamide]
6.44	Nc1ncccc1-c1nc2cc(C(F)(F)F)cnc2n1-c1ccc(CNC(=O)c2cccc(F)c2)cc1 [Example 188, N-{4-[2-(2-aminopyridin-3-yl)-6-(trifluoromethyl)-3H-imidazo[4,5-b]pyridin-3-yl]benzyl}-3-fluorobenzamide]
6.96	Cc1ccnc2c1nc(-c1cccnc1N)n2-c1ccc(CNC(=O)c2cccc(F)c2)cc1 [Example 190, N-(4-(2-(2-aminopyridin-3-yl)-7-methyl-3H-imidazo[4,5-b]pyridin-3-yl)benzyl)-3-fluorobenzamide]
5.96	Nc1ncccc1-c1nc2ccc(N3CCCCC3)nc2n1-c1ccc(CNC(=O)c2ccc(Br)cc2)cc1 [Example 191, N-(4-(2-(2-aminopyridin-3-yl)-5-(piperidin-1-yl)-3H-imidazo[4,5-b]pyridin-3-yl)benzyl)-4-bromobenzamide]
6.70	Nc1ncccc1-c1nc2ccc(N3CCCCC3)nc2n1-c1ccc(CNC(=O)c2ccccc2)cc1 [Example 192, N-(4-(2-(2-aminopyridin-3-yl)-5-(piperidin-1-yl)-3H-imidazo[4,5-b]pyridin-3-yl)benzyl)benzamide]
7.21	CC(=O)Nc1ccc(NC(=O)Cc2ccc(-n3c(-c4cccnc4N)nc4cc(C)cnc43)cc2)cc1 [Example 193, N-(4-acetamidophenyl)-2-(4-(2-(2-aminopyridin-3-yl)-6-methyl-3H-imidazo[4,5-b]pyridin-3-yl)phenyl)acetamide]
7.33	Cc1cnc2c(c1)nc(-c1cccnc1N)n2-c1ccc(CC(=O)Nc2ccc3nc(C)ccc3c2)cc1 [Example 194, 2-(4-(2-(2-aminopyridin-3-yl)-6-methyl-3H-imidazo[4,5-b]pyridin-3-yl)phenyl)-N-(2-methylquinolin-6-yl)acetamide]
7.12	Cc1cnc2c(c1)nc(-c1cccnc1N)n2-c1ccc(CC(=O)Nc2ccccc2)cc1 [Example 195, 2-(4-(2-(2-aminopyridin-3-yl)-6-methyl-3H-imidazo[4,5-b]pyridin-3-yl)phenyl)-N-phenylacetamide]
6.85	CS(=O)(=O)NCc1ccc(-n2c(-c3cccnc3N)nc3cc(-c4cccnc4)cnc32)cc1 [Example 196, N-(4-(2-(2-aminopyridin-3-yl)-6-(pyridin-3-yl)-3H-imidazo[4,5-b]pyridin-3-yl)benzyl)methanesulfonamide]
7.33	CC(=O)Nc1ccc(-c2cnc3c(c2)nc(-c2cccnc2N)n3-c2ccc(CNC(=O)c3ccccc3)cc2)cc1 [Example 197, N-(4-(6-(4-acetamidophenyl)-2-(2-aminopyridin-3-yl)-3H-imidazo[4,5-b]pyridin-3-yl)benzyl)benzamide]
7.21	Nc1ncccc1-c1nc2ccc(Cl)nc2n1-c1ccc(CNC(=O)c2ccccc2)cc1 [Example 198, N-(4-(2-(2-aminopyridin-3-yl)-5-chloro-3H-imidazo[4,5-b]pyridin-3-yl)benzyl)benzamide]
6.70	Nc1ncccc1-c1nc2cc(C(F)(F)F)cnc2n1-c1ccc(CNC(=O)c2ccccc2)cc1 [Example 199, N-(4-(2-(2-aminopyridin-3-yl)-6-(trifluoromethyl)-3H-imidazo[4,5-b]pyridin-3-yl)benzyl)benzamide]
7.13	Nc1ncccc1-c1nc2cc(-c3cccnc3)cnc2n1-c1ccc(CNS(=O)(=O)c2ccccc2)cc1 [Example 200, N-(4-(2-(2-aminopyridin-3-yl)-6-(pyridin-3-yl)-3H-imidazo[4,5-b]pyridin-3-yl)benzyl)benzenesulfonamide]
7.49	Nc1ncccc1-c1nc2ccc(-c3cccnc3)nc2n1-c1ccc(CNC(=O)c2ccccc2)cc1 [Example 201, N-(4-(2-(2-aminopyridin-3-yl)-5-(pyridin-3-yl)-3H-imidazo[4,5-b]pyridin-3-yl)benzyl)benzamide]
7.57	Nc1ncccc1-c1nc2ccc(-c3ccccc3)nc2n1-c1ccc(CNC(=O)c2ccccc2)cc1 [Example 202, N-(4-(2-(2-aminopyridin-3-yl)-5-phenyl-3H-imidazo[4,5-b]pyridin-3-yl)benzyl)benzamide]
